Assay results published in publication PMC10552397 (Cell Communication and Signaling : CCS, 2023).
Values joined by “and” are separate entries in the source; they are usually repeats but may differ in a detail not shown here. Identical values can stand only once.

Key:
[1] = tested on: JUNB; assay: TPP-TR/RTSA, JUNB; format: binding, Homo sapiens; details: 100 nM vs DMSO, 6 h, HeLa wt
Procedure: TPP was performed essentially as described, but with major modifications to the TMT labeling sets and statistical data analysis for TPP-TR.
Adherent cells were washed in the dish once with DPBS and harvested by Trypsin–EDTA (0.25%, Thermo Fisher Scientific, Waltham, MA, USA, #25,200,056) treatment. […]
After temperature treatment, samples were supplemented with lysis buffer (final concentrations: 0.36 U/µL benzonase, 1.5 mM MgCl2, 1 mM Na3VO4, 10 mM NaF, 2.5 mM Na4P2O7, 0.8% w/v NP-40) for 1 h on ice. […] The total protein concentration of the resulting cell extracts containing the fraction of soluble, non-denatured proteins was determined (Pierce 660 nm Protein Assay, BSA as standard). […] The two (37 °C or 50 °C) x ten (concentrations) x three (replicates) = 60 TPP-CCR samples and two (treatment and control) x ten (temperatures) x three (replicates) = 60 TPP-TR samples were analyzed by LC–MS/MS. GRASP55 was additionally quantified from the TPP-TR samples by immunoblotting as described in the respective section.
For TPP-CCR, SP3 was performed as described with slight modifications to the original protocol using on average 5 µg total protein per sample and resulting in theoretically 5 µg peptides in 22 µL 50 mM triethylammonium bicarbonate per sample. […] This volume was calculated such that the lowest two temperature samples (36.5 °C and 41.2 °C) contained 10 µg total protein on average. […]

[2] = molecular target: GRASP55 (Homo sapiens, UniProt Q9H8Y8); assay: Thermal proteome profiling compound concentration range (TPP-CCR), GRASP55; format: binding; design: endogenous in cells; details: for GORASP2 dose response, average: average of n=1-3; for GORASP2 dose response, fit: value of fitted curve; for EC50: 3 min at 50 °C; for normalized.Reporter.intensity: single replicates n1-n3
Procedure: Adherent cells were washed in the dish once with DPBS and harvested by Trypsin–EDTA (0.25%, Thermo Fisher Scientific, Waltham, MA, USA, #25,200,056) treatment. After addition of 35 mL DPBS, the cells were pelleted by centrifugation (300 rcf, 5 min, 4 °C), and washed twice by re-suspending and pelleting using 45 mL and 1 mL DPBS, respectively, to remove excess trypsin and for transfer into pre-weighed 2 mL Eppendorf tubes to determine the cell pellet wet weights as quality check after centrifugation (300 rcf, 5 min, 4 °C) and complete removal of the supernatant. Cells for TPP-TR were resuspended using 1 mL, and cells for TPP-CCR were resuspended using 0.4 mL ice-cold DPBS, respectively, supplemented with protease inhibitor cocktail (Roche, Basel, Switzerland, #5,892,791,001). […] Cell suspensions were shortly centrifuged (1 s or less) using a benchtop centrifuge to release trapped air and to achieve an even liquid level without pelleting the cells. The samples were then temperature treated by a 7 min pre-incubation at RT, 3 min temperature treatment in the PCR cycler (DNA Engine Tetrad 2, lid temperature 70 °C) at different temperatures (37 °C or 50 °C for TPP-CCR or the temperatures given in Table 2 for TPP-TR) and a 3 min post-incubation at RT in a metal heating block for uniform heat dissipation.
After temperature treatment, samples were supplemented with lysis buffer (final concentrations: 0.36 U/µL benzonase, 1.5 mM MgCl2, 1 mM Na3VO4, 10 mM NaF, 2.5 mM Na4P2O7, 0.8% w/v NP-40) for 1 h on ice. The lysates were cleared from cell debris as well as denatured and precipitated proteins by centrifugation at 20,000 rcf and 4 °C for 30 min. The total protein concentration of the resulting cell extracts containing the fraction of soluble, non-denatured proteins was determined (Pierce 660 nm Protein Assay, BSA as standard). Cell extracts were shock frozen in liquid nitrogen and stored at -80 °C. The three replicates for TPP-TR and TPP-CCR were prepared on consecutive days, respectively. The two (37 °C or 50 °C) x ten (concentrations) x three (replicates) = 60 TPP-CCR samples and two (treatment and control) x ten (temperatures) x three (replicates) = 60 TPP-TR samples were analyzed by LC–MS/MS. GRASP55 was additionally quantified from the TPP-TR samples by immunoblotting as described in the respective section.
For TPP-CCR, SP3 was performed as described with slight modifications to the original protocol using on average 5 µg total protein per sample and resulting in theoretically 5 µg peptides in 22 µL 50 mM triethylammonium bicarbonate per sample. For each of the two (treatment and control) x three (replicates) = six TPP-TR temperature treatment sample sets, the same volume for each of the ten temperature samples was used for SP3 processing, thus, maintaining the information about the temperature dependent non-denatured protein content. This volume was calculated such that the lowest two temperature samples (36.5 °C and 41.2 °C) contained 10 µg total protein on average. The samples were diluted using SDS containing buffer (20 µL final, final concentrations: 7.5% glycerol, 3% SDS, 37.5 mM Tris/HCl pH 7.0) and the proteins were reduced, alkylated, and precipitated on the solid phase as described using adjusted volumes (2 × due to processing 10 µg instead of 5 µg). Volumes for washing of the aggregated proteins on the solid phase and for tryptic digestion were kept unchanged, however, to maintain the maximal total protein to trypsin/Lys-C ratio at 50:1 in the two rounds of digestion (13 h and 4 h), respectively, 2 × 0.2 µg trypsin/Lys-C was used per sample, theoretically resulting in at most about 10 µg peptides in 22 µL 50 mM triethylammonium bicarbonate. […]

CCCCCC1=C/C(=C/c2[nH]c(-c3ccc[nH]3)cc2OC)N=C1C [Prodigiosin, prodigiosin]
Mean_dTm [1]: 2.343
GORASP2 dose response, average ([2]; 37°C, 0.0976562 nM prodigiosin): -0.42
GORASP2 dose response, fit ([2]; 37°C, 0.0976562 nM prodigiosin): 0.0663
GORASP2 dose response, average ([2]; 37°C, 0.390625 nM prodigiosin): 0.54
GORASP2 dose response, fit ([2]; 37°C, 0.390625 nM prodigiosin): 0.10
GORASP2 dose response, average ([2]; 37°C, 1.5625 nM prodigiosin): 0.10
GORASP2 dose response, fit ([2]; 37°C, 1.5625 nM prodigiosin): 0.16
GORASP2 dose response, average ([2]; 37°C, 6.25 nM prodigiosin): 0.08
GORASP2 dose response, fit ([2]; 37°C, 6.25 nM prodigiosin): 0.23
GORASP2 dose response, average ([2]; 37°C, 25 nM prodigiosin): 0.33
GORASP2 dose response, fit ([2]; 37°C, 25 nM prodigiosin): 0.33
GORASP2 dose response, average ([2]; 37°C, 100 nM prodigiosin): 0.64
GORASP2 dose response, fit ([2]; 37°C, 100 nM prodigiosin): 0.44
GORASP2 dose response, average ([2]; 37°C, 400 nM prodigiosin): 0.47
GORASP2 dose response, fit ([2]; 37°C, 400 nM prodigiosin): 0.56
GORASP2 dose response, average ([2]; 37°C, 1600 nM prodigiosin): 0.85
GORASP2 dose response, fit ([2]; 37°C, 1600 nM prodigiosin): 0.68
GORASP2 dose response, average ([2]; 37°C, 6400 nM prodigiosin): 0.55
GORASP2 dose response, fit ([2]; 37°C, 6400 nM prodigiosin): 0.77
GORASP2 dose response, average ([2]; 50°C, 0.0976562 nM prodigiosin): 0.0745
GORASP2 dose response, fit ([2]; 50°C, 0.0976562 nM prodigiosin): 0.06
GORASP2 dose response, average ([2]; 50°C, 0.390625 nM prodigiosin): 0.13
GORASP2 dose response, fit ([2]; 50°C, 0.390625 nM prodigiosin): 0.17
GORASP2 dose response, average ([2]; 50°C, 1.5625 nM prodigiosin): 0.40
GORASP2 dose response, fit ([2]; 50°C, 1.5625 nM prodigiosin): 0.39
GORASP2 dose response, average ([2]; 50°C, 6.25 nM prodigiosin): 0.72
GORASP2 dose response, fit ([2]; 50°C, 6.25 nM prodigiosin): 0.68
GORASP2 dose response, average ([2]; 50°C, 25 nM prodigiosin): 0.81
GORASP2 dose response, fit ([2]; 50°C, 25 nM prodigiosin): 0.87
GORASP2 dose response, average ([2]; 50°C, 100 nM prodigiosin): 0.97
GORASP2 dose response, fit ([2]; 50°C, 100 nM prodigiosin): 0.96
GORASP2 dose response, average ([2]; 50°C, 400 nM prodigiosin): 0.97
GORASP2 dose response, fit ([2]; 50°C, 400 nM prodigiosin): 0.99
GORASP2 dose response, average ([2]; 50°C, 1600 nM prodigiosin): 1.04
GORASP2 dose response, fit ([2]; 50°C, 1600 nM prodigiosin): 1.00
GORASP2 dose response, average ([2]; 50°C, 6400 nM prodigiosin): 0.85
GORASP2 dose response, fit ([2]; 50°C, 6400 nM prodigiosin): 1.00
EC50 ([2]; EC50 of GRASP55 stabilization, HeLa wt, 6 h): 2.6 nM
diff pseudoR2(50-37°C) ([2]; GRASP55/GORASP2): 0.81
pseudoR2 (dose response curve fit, 37°C) ([2]; GRASP55/GORASP2, 37°C): 0.16
normalized.Reporter.intensity ([2]; GRASP55/GORASP2, 37°C, 0.0976562 nM prodigiosin): 0.13 and -0.19 and -1.19
normalized.Reporter.intensity ([2]; GRASP55/GORASP2, 37°C, 0.390625 nM prodigiosin): 0.0349 and 0.46 and 1.11
normalized.Reporter.intensity ([2]; GRASP55/GORASP2, 37°C, 1.5625 nM prodigiosin): 0.45 and -0.0156 and -0.12
normalized.Reporter.intensity ([2]; GRASP55/GORASP2, 37°C, 6.25 nM prodigiosin): 0.55 and 0.11 and -0.42
normalized.Reporter.intensity ([2]; GRASP55/GORASP2, 37°C, 25 nM prodigiosin): 0.93 and 0.24 and -0.19
normalized.Reporter.intensity ([2]; GRASP55/GORASP2, 37°C, 100 nM prodigiosin): 1.03 and 0.10 and 0.80
normalized.Reporter.intensity ([2]; GRASP55/GORASP2, 37°C, 400 nM prodigiosin): 0.81 and 0.51 and 0.08
normalized.Reporter.intensity ([2]; GRASP55/GORASP2, 37°C, 1600 nM prodigiosin): 1.12 and 0.54 and 0.88
normalized.Reporter.intensity ([2]; GRASP55/GORASP2, 37°C, 6400 nM prodigiosin): -0.23 and 0.82 and 1.06
H (dose response curve fit parameters, 37°C) ([2]; GRASP55/GORASP2, 37°C, Hill slope of fit): 0.35 and 0.3479
pseudoR2 (dose response curve fit, 50°C) ([2]; GRASP55/GORASP2, 50°C): 0.97
normalized.Reporter.intensity ([2]; GRASP55/GORASP2, 50°C, 0.0976562 nM prodigiosin): 0.0172 and 0.11 and 0.10
normalized.Reporter.intensity ([2]; GRASP55/GORASP2, 50°C, 0.390625 nM prodigiosin): 0.12 and 0.19 and 0.10
normalized.Reporter.intensity ([2]; GRASP55/GORASP2, 50°C, 1.5625 nM prodigiosin): 0.43 and 0.35 and 0.41
normalized.Reporter.intensity ([2]; GRASP55/GORASP2, 50°C, 6.25 nM prodigiosin): 0.85 and 0.64 and 0.65
normalized.Reporter.intensity ([2]; GRASP55/GORASP2, 50°C, 25 nM prodigiosin): 0.87 and 0.76 and 0.81
normalized.Reporter.intensity ([2]; GRASP55/GORASP2, 50°C, 100 nM prodigiosin): 0.94 and 0.97 and 0.99
normalized.Reporter.intensity ([2]; GRASP55/GORASP2, 50°C, 400 nM prodigiosin): 0.91 and 0.97 and 1.04
normalized.Reporter.intensity ([2]; GRASP55/GORASP2, 50°C, 1600 nM prodigiosin): 1.02 and 1.10 and 1.01
normalized.Reporter.intensity ([2]; GRASP55/GORASP2, 50°C, 6400 nM prodigiosin): 0.82 and 0.89 and 0.84
H (dose response curve fit parameters, 50°C) ([2]; GRASP55/GORASP2, 50°C, Hill slope of fit): 0.84 and 0.8417
dose response of GRASP55 at 37 °C (abundance control) ([2]; HeLa wt, 6 h, 37 °C): no dose response effects
EC50 ([2]; pEC50 of GRASP55 stabilization, HeLa wt, 6 h): 2.63 nM
